Measured values from patent US6531499B2, “Matrix metalloproteinase inhibitors and method of using same” (Wisconsin Alumni Research Foundation, priority 1999, dated 2003).

How the values were obtained:
F442A fibroblast = assay type: cell-based; settings: concentrations up to 100 μM; 6 to 24 hours in serum-free medium
Procedure: Toxicity of the compounds was determined by incubating several log doses of the compound and solvent controls for 6 to 24 hours in serum-free medium. The cell number was then determined by comparing the absorbance of crystal violet with controls, and cell death determined by trypan blue dye exclusion in conventional and well known fashion. The model cell line used was a murine fibroblast cell line designated F442A, which was generously provided by Dr. Howard Green of Harvard University.
The compounds were cleaved from the beads into a single solution and tested in this combined fashion.

HiMel cells = assay: In vitro invasion assay: HiMel cell penetration of […] (Transwell); assay type: cell-based, human; settings: same assay as Example 3; concentration not given
Excerpt: An 8 μm pore filter coated with “[…]” separates a series of lower compartments containing a chemoattractant and a corresponding series of upper compartments containing metastatic and non-metastatic cells and a compound to be tested. The metastatic cells are able to degrade the “[…]” barrier and, over a period of time, migrate through the pores of the filter whereas non-metastatic cells remain on the upper surface. The cells that pass to the underside of the filter are counted under a microscope to determine the extent to which they are able to pass from the upper compartment into the lower compartment. […]
This method has been refined to increase the number of assays which may be performed and analyzed per day. […] Motility of the cells through the 8 μm filters is not by passive diffusion since the pore size is smaller than the cells, and is determined in the same chamber in the absence of “[…]”. […]
Compounds to be tested were dissolved in DMSO and were added in serial dilutions of 0 (control) 1, and 10 μM. […] Invasive cells found on the under side of the filter were measured by solubilizing the stain in 10% acetic acid 20% methanol and reading the absorbance at 595 nm.

MMP-2 = target: T1, MMP-2 (Homo sapiens, UniProt P08253); assay: Colorimetric 96-well thiopeptolide collagenase assay; assay type: biochemical; settings: change in absorbance at 405 nm
T1 sequence (P08253 110-660): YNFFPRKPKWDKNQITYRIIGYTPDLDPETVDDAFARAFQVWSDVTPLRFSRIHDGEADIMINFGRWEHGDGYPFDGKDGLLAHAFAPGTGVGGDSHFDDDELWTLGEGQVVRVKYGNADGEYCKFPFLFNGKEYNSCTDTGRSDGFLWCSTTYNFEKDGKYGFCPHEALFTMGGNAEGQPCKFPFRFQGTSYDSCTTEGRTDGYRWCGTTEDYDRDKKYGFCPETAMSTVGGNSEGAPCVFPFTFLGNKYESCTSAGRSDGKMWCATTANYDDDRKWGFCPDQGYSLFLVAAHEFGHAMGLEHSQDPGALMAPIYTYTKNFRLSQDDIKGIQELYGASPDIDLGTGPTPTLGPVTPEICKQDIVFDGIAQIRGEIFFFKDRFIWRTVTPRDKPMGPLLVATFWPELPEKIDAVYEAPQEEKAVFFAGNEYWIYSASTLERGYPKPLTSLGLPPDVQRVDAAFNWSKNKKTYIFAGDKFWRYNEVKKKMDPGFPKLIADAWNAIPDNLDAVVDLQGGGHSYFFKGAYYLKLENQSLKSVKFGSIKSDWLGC
Procedure: The preferred assay method to measure MMP inhibitory activity is a colorimetric assay which can be monitored spectrophotometrically. Specifically, the ability of the subject matrix metalloproteinase inhibitors to suppress MMP-2 or MMP-9 activity is assessed using a colorimetric 96-well thiopeptolide collagenase assay as described by Xia et al. (Xia T, Akers K, Eisen A Z and Seltzer J L. (1996) Biochim et Biophy Acta. 1293:259). This protocol entails the cleavage of a thiopeptolide substrate AcProLeuGly-S-LeuGlyOC2H5 (Bachem Bioscience, Cat # H7145) by MMP-2 or MMP-9, giving a free sulfhydryl group. The free —SH then reacts with DTNB (Ellman's reagent, 5,5′-dithio-bis(2-nitrobenzoic acid)) giving a colored molecule whose formation can be examined spectrophotometrically at 405 nm.
The thiopeptolide substrate (5 μL/well, 5 mM in DMF), DTNB (15 μL/well, 10 mM in 50 mM HEPES, 10 mM CaCl2, pH 6.92), and matrix metalloproteinase inhibitors or DMSO (total volume equal to 5 μL/well) are mixed in a 96-well plate (Falcon). A single row of wells is used for each matrix metalloproteinase inhibitor and various inhibitor concentrations are used to control for row to row variation in collagenase activity. The reaction is then initiated by pipeting 130 μL of a solution of collagenase buffer (126 μL/well, 50 mM HEPES, 10 mM CaCl2, pH 6.92) and activated MMP-2 or MMP-9 (4 μL/well, 0.05 M borate, pH 7.46, 5 mM CaCl2 , 20% glycerol, 0.0005% Brij-35) into a row of wells using a 12-channel multipipeter. The change in absorbance from 0-20 minutes is then monitored at 405 nm using an ELX 800 automated microplate reader (Bio-Tek Instruments, Inc., Winooski, Vt.). The change in absorbance is calculated and graphed.
The thiopeptolide substrate AcProLeuGly-S-LeuGlyOC2H5 (5 μL/well, 5 mM in DMF), DTNB (15 μL/well, 10 mM in 50 mM HEPES, 10 mM CaCl2, pH 6.92), and matrix metalloproteinase inhibitors or DMSO (total volume equal to 5 μL/well) were mixed in a 96-well plate. A single row of wells was used for each concentration of the test compound and concentrations of 10, 20, and 40 μM of the test compound were used. The reaction was then initiated by pipeting 130 μL of a solution of collagenase buffer (126 μL/well, 50 mM HEPES, 10 mM CaCl2, pH 6.92) and activated MMP-2 (4 μL/well, 0.05 M borate, pH 7.46, 5 mM CaCl2, 20% glycerol, 0.0005% Brij-35) into a row of wells using a 12-channel multipipeter. The change in absorbance from 0-20 minutes was then monitored at 405 nm. The change in absorbance was calculated and graphed; the results are depicted in FIG. 4.

[1] = 0 (control), 40, 80, and 160 μM

Row | Compound | effect on the growth / viability of fibroblasts (F442A fibroblast) | inhibition of HiMel MATRIGEL invasion as compared to the control (HiMel cells) | inhibition of MMP-2 collagenase activity (MMP-2; 10, 20, and 40 μM, 0-20 minutes) | inhibition of MMP-2 collagenase activity (MMP-2; [1])
1 | O=C(CN(Cc1ccccc1)C(=O)CN(CCCc1ccccc1)C(=O)Nc1ccc(Oc2ccccc2)cc1)NO | no significant effect | approximately 50% | inhibited MMP-2 collagenase activity in a dose-dependent manner | –
2 | O=C(CN(CCCCc1ccccc1)C(=O)CN(CCCc1ccccc1)C(=O)Nc1ccc(Oc2ccccc2)cc1)NO | no significant effect | – | – | inhibits MMP-2 collagenase activity in a dose-dependent fashion
3 | NC(=O)CN(Cc1ccccc1)C(=O)CN(CCCc1ccccc1)C(=O)Nc1ccc(Oc2ccccc2)cc1 | – | – | – | inhibits MMP-2 collagenase activity in a dose-dependent fashion
4 | O=C(Nc1ccc(Oc2ccccc2)cc1)Nc1ccc(Oc2ccccc2)cc1 | – | – | – | inhibits MMP-2 collagenase activity in a dose-dependent fashion
5 | O=C(Nc1ccc(Oc2ccccc2)cc1)Nc1ccc(-c2ccccc2)cc1 | – | approximately 50% | – | inhibits MMP-2 collagenase activity in a dose-dependent fashion
